Consider three compounds from ChEMBL document CHEMBL4130565, “Consequences of Depsipeptide Substitution on the ClpP Activation Activity of Antibacterial Acyldepsipeptides” (ACS Med Chem Lett, 2017).

Data set [1] is described as follows: Half life in CD3OD assessed as hydrogen-deuterium exchange by 1H-NMR analysis. The data set is classed as physicochemical.
In data set [2] the target is ATP-dependent Clp protease proteolytic subunit (Bacillus subtilis (strain 168)) (UniProt P80244). Nature of the data set: Activation of Bacillus subtilis ClpP expressed in Escherichia coli BL21(DE3) using Abz-DFAPKMALVPYNO2 as substrate pretreated for 15 mins followed by substrate addition measured every 30 mins for 2 hrs by fluorescence assay.
ATP-dependent Clp protease proteolytic subunit (Bacillus subtilis (strain 168)), sequence (P80244 whole entry, looked up): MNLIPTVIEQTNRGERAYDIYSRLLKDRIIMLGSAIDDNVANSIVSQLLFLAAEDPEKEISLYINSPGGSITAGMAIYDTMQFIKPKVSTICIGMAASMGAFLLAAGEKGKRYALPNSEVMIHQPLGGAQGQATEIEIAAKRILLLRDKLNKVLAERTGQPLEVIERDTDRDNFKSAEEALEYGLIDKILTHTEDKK
The test system of a further data set is Bacillus subtilis. In words: Antibacterial activity against Bacillus subtilis ATCC 6051 after 16 hrs by microdilution method. The data set is classed as functional. As to conditions: ATCC 6051, 16 h. On the technique in general: Dilution methods test growth across graded concentrations, often in twofold steps.
Data set [3] concerns the target ATP-dependent Clp protease proteolytic subunit (Bacillus subtilis (strain 168)) (UniProt P80244). In words: Stabilization of Bacillus subtilis ClpP assessed as change in melting temperature at 50 uM after 30 mins by SYPRO orange protein gel staining based FRET analysis.

SMILES strings stand for the structures. Several values for one entry are separate records, joined by “and”; a condition that tells them apart may be missing. Equal values may be shown once. Where a SMILES comes first, the peptide text is derived from it. Bridges are numbered along the chain shown (N, C = ends). [ ]: non-standard residue; d: D form. The star is where a group is joined. Phe(3,5-F2) = N[C@@H](Cc1cc(F)cc(F)c1)C(=O)O; Heptenoyl(2E) = CCCC/C=C/C(=O)*; NMeA = CN[C@@H](C)C(=O)O; Dap = NC[C@H](N)C(=O)O Some results are limits rather than exact numbers.

For `CCCC/C=C/C(=O)N[C@@H](Cc1cc(F)cc(F)c1)C(=O)N[C@H]1CN(C)C(=O)[C@@H]2CCCN2C(=O)[C@H](C)NC(=O)[C@H](C)N(C)C(=O)[C@@H]2CCCN2C1=O`, in data set [1], the half-life is less than 4 min. In addition, the Kapp in data set [2] came to 4.39 µM. The MIC in the data set with Bacillus subtilis is > 25 µM and > 18.6 µg/mL. Also, in data set [3], the ΔTm stood at 12.7 °C.

As for `CCCC/C=C/C(=O)N[C@@H](Cc1cc(F)cc(F)c1)C(=O)N[C@H]1COC(=O)[C@@H]2CCCN2C(=O)[C@H](C)NC(=O)[C@H](C)N(C)C(=O)[C@@H]2CCCN2C1=O` ({Heptenoyl(2E)}-[Phe(3,5-F2)]SP[NMeA]AP; ester 2-C), the half-life in data set [1] turned out to be 38 min. For the same compound, the Kapp in data set [2] worked out at 0.037 µM. Also, the MIC in the data set on Bacillus subtilis was 0.037 µM and 0.027 µg/mL. Further, the ΔTm in data set [3] turned out to be 29.1 °C.

On to `CCCC/C=C/C(=O)N[C@@H](Cc1cc(F)cc(F)c1)C(=O)N[C@H]1CNC(=O)[C@@H]2CCCN2C(=O)[C@H](C)NC(=O)[C@H](C)N(C)C(=O)[C@@H]2CCCN2C1=O` ({Heptenoyl(2E)}-[Phe(3,5-F2)][Dap]P[NMeA]AP; lactam 2-C), for which the half-life in data set [1] is less than 4 min. Further, the Kapp in data set [2] was 0.085 µM. The MIC in the data set with Bacillus subtilis is 6.25 µM and 4.6 µg/mL. In addition, the ΔTm in data set [3] amounted to 22.8 °C.

In general, half-life refers to how long it takes for the measured level to halve. The MIC is the lowest concentration found to suppress growth. Higher therefore signals a less susceptible organism. Usually ΔTm stands for the shift of the melting midpoint relative to a reference.
